Reference: the NIST ThermoML archive (doi:10.1021/je060271a)

Settings: 343.15 K, Liquid, Vibrating tube method

CCCC(=O)OCC(COC(=O)CCC)(COC(=O)CCC)COC(=O)CCC [pentaerythritol tetrabutyrate]
Settings	mass density [kg/m3]
14185 kPa	1019
14223 kPa	1019.1
14263 kPa	1019
14296 kPa	1019.1
14334 kPa	1019.1
14374 kPa	1019.1
14412 kPa	1019.1
14452 kPa	1019.2
14485 kPa	1019.2
14525 kPa	1019.1
14564 kPa	1019.1
14606 kPa	1019.2
14639 kPa	1019.3
14680 kPa	1019.3
14721 kPa	1019.3
14764 kPa	1019.4
14805 kPa	1019.4
14840 kPa	1019.4
15093 kPa	1019.6
15139 kPa	1019.6
15180 kPa	1019.6
15211 kPa	1019.8
15248 kPa	1019.7
15286 kPa	1019.7
15317 kPa	1019.7
15355 kPa	1019.8
15392 kPa	1019.8
15430 kPa	1019.8
15469 kPa	1019.9
15538 kPa	1019.9
15616 kPa	1020
15655 kPa	1019.9
15688 kPa	1020.1
15727 kPa	1020.1
15769 kPa	1020
15802 kPa	1020.2
15842 kPa	1020.2
15881 kPa	1020.2
15922 kPa	1020.2
15956 kPa	1020.2
15997 kPa	1020.2
16038 kPa	1020.3
16079 kPa	1020.2
16120 kPa	1020.4
16154 kPa	1020.3
16195 kPa	1020.4
16239 kPa	1020.3
16276 kPa	1020.5
16318 kPa	1020.4
16360 kPa	1020.5
16403 kPa	1020.5
16446 kPa	1020.6
16489 kPa	1020.5
16526 kPa	1020.6
16570 kPa	1020.6
16614 kPa	1020.7
16659 kPa	1020.6
16696 kPa	1020.7
16741 kPa	1020.8
16787 kPa	1020.9
16833 kPa	1020.9
16879 kPa	1020.9
16918 kPa	1021
16964 kPa	1021
17012 kPa	1020.9
17052 kPa	1021
17100 kPa	1021.1
17143 kPa	1021.2
17186 kPa	1021
17229 kPa	1021.2
17265 kPa	1021.1
17310 kPa	1021.1
17355 kPa	1021.3
17393 kPa	1021.2
17439 kPa	1021.3
17485 kPa	1021.2
17525 kPa	1021.4
17560 kPa	1021.3
17590 kPa	1021.4
17624 kPa	1021.4
17660 kPa	1021.5
17694 kPa	1021.4
17730 kPa	1021.5
17760 kPa	1021.5
17796 kPa	1021.6
17870 kPa	1021.5
17900 kPa	1021.5
17935 kPa	1021.6
17972 kPa	1021.8
18009 kPa	1021.6
18039 kPa	1021.7
18076 kPa	1021.8
18113 kPa	1021.7
18150 kPa	1021.8
18187 kPa	1021.7
18218 kPa	1021.8
18256 kPa	1021.9
18294 kPa	1021.8
18332 kPa	1022
18370 kPa	1021.9
18402 kPa	1021.9
18441 kPa	1022
18479 kPa	1022
18518 kPa	1022.1
18552 kPa	1022.2
18590 kPa	1022.1
18630 kPa	1022.1
18669 kPa	1022.1
18703 kPa	1022.1
18742 kPa	1022.2
18784 kPa	1022.2
18824 kPa	1022.3
18864 kPa	1022.3
18898 kPa	1022.2
18938 kPa	1022.4
18978 kPa	1022.3
19020 kPa	1022.4
19054 kPa	1022.4
19096 kPa	1022.5
19138 kPa	1022.5
19216 kPa	1022.5
19297 kPa	1022.6
19340 kPa	1022.6
19382 kPa	1022.6
19425 kPa	1022.6
19468 kPa	1022.7
19504 kPa	1022.8
19548 kPa	1022.7
19591 kPa	1022.9
19634 kPa	1022.7
19679 kPa	1022.9
19717 kPa	1022.8
19761 kPa	1022.8
19809 kPa	1022.9
19854 kPa	1022.9
19892 kPa	1023
19938 kPa	1023
19984 kPa	1023.1
20022 kPa	1023.2
20068 kPa	1023.1
20115 kPa	1023.2
20161 kPa	1023.1
20200 kPa	1023.2
20247 kPa	1023.1
20294 kPa	1023.1
20341 kPa	1023.3
